Test results published in patent US10273240B2, “Cortistatin analogues, syntheses, and uses thereof” (President and Fellows of Harvard College, priority 2015, dated 2019).

Columns and labels:
[1] = target: T1, CDK12 in MOLM-14 cell lysate (Homo sapiens, UniProt Q9NYV4); assay: Native kinase capture immunoblot, CDK12; assay type: binding
T1 construct: endogenous in cells; host or cells: MOLM-14 cell lysate
Method: Native Kinase Capture Immunoblot and Native Kinome-Wide Profiling. […] Experiment was performed twice with one immunoblot shown.

CDK7 (TFIIH) = target: T2, CDK7 (TFIIH) (Homo sapiens, UniProt P50613); assay: In vitro kinase assay, CDK7 (TFIIH); assay type: biochemical
T2 construct: TFIIH was captured from HeLa nuclear extract; endogenous in cells; host or cells: HeLa nuclear extract
Method: Kinase Assays. Data was quantified with ImageJ and plotted and fitted with GraphPad Prism 6.0. For STAT1 transactivation domain (TAD), 750 ng of GST-STAT1 TAD (residues 639-750) was incubated with ˜50 ng recombinant CDK8 module at 30° C. for 8 min in kinase buffer (25 mM Tris pH 8, 2 mM DTT, 100 μM cold ATP, 100 mM KCl, 10 mM MgCl2 and 2.5 μCi [γ-^32P] ATP (Perkin Elmer) per reaction). […] 12% SDS-PAGE gels were subsequently silver stained, exposed for 18 h on a Phosphor Screen and imaged (Typhoon 9400, GE Life Sciences). For pol II CTD, 400 ng of GST-CTD (murine sequence) was incubated with ˜40 ng recombinant CDK8 module, 25 ng TFIIH, or 40 ng P-TEFb at 30° C. for 60 min in kinase buffer. Kinase amounts were chosen to give similar total pol II CTD signal. 9% SDS-PAGE gels were silver stained and exposed as above. In vitro FLAG-CDK8 kinase assays used ˜40 ng kinase and 500 ng GST-CTD. For STAT1 or Smad2/3, cells were treated with compound for 1 h followed by IFN-γ or TGF-β1 for 1 h, then washed twice with cold PBS, and lysed (RIPA buffer with inhibitors R0278, P8340, P0044, P5762 Sigma-Aldrich). Standard immunoblotting was then performed with one immunoblot shown. All experiments were performed twice.
Protein Purification. Buffers for purification and elution of recombinant proteins included 0.25 mM PMSF, 1 mM DTT, 1 mM benzamidine, and 1 mM sodium metabisulfite. […]

T1 sequence (Q9NYV4 whole entry): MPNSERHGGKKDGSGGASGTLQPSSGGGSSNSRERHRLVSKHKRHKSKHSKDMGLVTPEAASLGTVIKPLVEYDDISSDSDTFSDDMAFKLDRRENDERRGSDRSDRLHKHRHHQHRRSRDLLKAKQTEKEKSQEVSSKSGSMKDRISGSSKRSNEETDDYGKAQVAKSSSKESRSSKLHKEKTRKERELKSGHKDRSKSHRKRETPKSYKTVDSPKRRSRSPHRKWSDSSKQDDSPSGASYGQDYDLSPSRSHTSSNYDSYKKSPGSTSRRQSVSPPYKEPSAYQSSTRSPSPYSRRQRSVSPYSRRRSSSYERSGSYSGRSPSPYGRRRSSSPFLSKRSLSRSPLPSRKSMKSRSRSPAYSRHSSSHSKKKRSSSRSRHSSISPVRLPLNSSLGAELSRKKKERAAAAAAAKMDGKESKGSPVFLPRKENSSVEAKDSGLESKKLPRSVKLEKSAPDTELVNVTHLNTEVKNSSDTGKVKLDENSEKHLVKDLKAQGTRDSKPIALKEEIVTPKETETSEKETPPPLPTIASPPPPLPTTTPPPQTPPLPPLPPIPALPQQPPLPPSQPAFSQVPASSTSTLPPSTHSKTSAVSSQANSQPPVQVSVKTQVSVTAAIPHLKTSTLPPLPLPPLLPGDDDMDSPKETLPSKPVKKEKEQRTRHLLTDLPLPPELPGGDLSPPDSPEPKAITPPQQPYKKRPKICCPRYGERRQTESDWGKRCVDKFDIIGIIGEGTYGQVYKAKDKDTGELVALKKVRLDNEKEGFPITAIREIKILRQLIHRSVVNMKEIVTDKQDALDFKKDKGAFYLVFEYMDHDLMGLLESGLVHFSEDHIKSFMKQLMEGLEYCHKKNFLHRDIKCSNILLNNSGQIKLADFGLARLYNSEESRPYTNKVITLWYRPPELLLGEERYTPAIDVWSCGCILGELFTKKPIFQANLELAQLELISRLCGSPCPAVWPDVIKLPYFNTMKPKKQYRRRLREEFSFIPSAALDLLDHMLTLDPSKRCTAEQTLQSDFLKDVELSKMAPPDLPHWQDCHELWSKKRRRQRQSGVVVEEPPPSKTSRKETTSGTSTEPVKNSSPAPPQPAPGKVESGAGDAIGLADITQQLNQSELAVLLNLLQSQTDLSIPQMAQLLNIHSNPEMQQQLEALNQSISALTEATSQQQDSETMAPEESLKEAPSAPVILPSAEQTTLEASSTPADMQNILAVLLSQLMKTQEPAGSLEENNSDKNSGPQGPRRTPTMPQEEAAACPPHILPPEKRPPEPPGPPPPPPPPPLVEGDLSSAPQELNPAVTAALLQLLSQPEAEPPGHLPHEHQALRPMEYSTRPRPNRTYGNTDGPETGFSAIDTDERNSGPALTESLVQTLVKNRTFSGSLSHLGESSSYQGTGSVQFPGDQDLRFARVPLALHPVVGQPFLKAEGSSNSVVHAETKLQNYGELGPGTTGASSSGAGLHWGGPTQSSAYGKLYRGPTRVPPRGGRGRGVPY
T1 sequence (O75909 whole entry partner): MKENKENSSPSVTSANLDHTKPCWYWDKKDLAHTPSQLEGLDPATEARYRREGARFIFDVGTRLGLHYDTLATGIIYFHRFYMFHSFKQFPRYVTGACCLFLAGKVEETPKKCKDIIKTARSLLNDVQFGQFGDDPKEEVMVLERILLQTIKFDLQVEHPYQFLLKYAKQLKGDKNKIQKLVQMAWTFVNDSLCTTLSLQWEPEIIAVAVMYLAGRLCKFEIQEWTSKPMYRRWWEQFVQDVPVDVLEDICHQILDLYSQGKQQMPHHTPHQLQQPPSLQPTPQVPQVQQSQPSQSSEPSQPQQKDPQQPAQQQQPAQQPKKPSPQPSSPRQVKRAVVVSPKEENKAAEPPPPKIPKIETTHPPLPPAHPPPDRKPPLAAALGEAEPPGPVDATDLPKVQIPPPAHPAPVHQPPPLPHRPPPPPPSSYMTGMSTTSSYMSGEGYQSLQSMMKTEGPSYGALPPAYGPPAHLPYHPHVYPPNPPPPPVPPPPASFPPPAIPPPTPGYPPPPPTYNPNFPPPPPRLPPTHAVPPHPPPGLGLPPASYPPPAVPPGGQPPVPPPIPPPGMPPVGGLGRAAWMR

CN(C)[C@H]1C[C@@]23CC[C@@]4(O2)C(=CC[C@@]2(C)[C@@H](c5ccc6ccncc6c5)CC[C@H]24)C=C3[C@@H](O)[C@@H]1O [CA, cortistatin A]
binding of CDK12 (no binding at up to) [1]: > 2500 nM | inhibition of CDK7 (TFIIH) (CDK7 (TFIIH)): did not inhibit
